Laboratory results: article PMC10837065 (Current Research in Insect Science, 2024)

How the values were obtained:
PficOrco/PficOR8 = test: Fluo4-AM calcium fluorescence, FlexStation-3, HEK293 cells; assay type: cell-based, Planococcus ficus; details: agonist; doxycycline-induced cells; 0.5 % DMSO
PficOrco/PficOR6 = test: as above; assay type: cell-based, Planococcus ficus; details: agonist; doxycycline-induced cells; 0.5 % DMSO

Compound | EC50 (PficOrco/PficOR8) [µM] | EC50 (PficOrco/PficOR6) [µM]
CCCC(=O)OCC(CC=C(C)C)=C(C)C [2-isopropyliden-5-methyl-4-hexen-1-yl butyrate] | 8.6 | 
C=C(C)C(CC=C(C)C)COC(=O)C=C(C)C (stereo not drawn) [lavandulyl senecioate] | 52.6 | 4.6
